Data reported in patent US20090247570A1, “PHARMACEUTICALS” (Pfizer Inc, priority 2006, published 2009).

Legend:
[1] = system: HIV-1 (CXCR4 using viral population); test: Clinical trial: HIV-1 viral load after 24 weeks in treatment experienced patients infected with a CXCR4 using viral population; type: in vivo; conditions: for Mean VL reduction: after 24 weeks, change from baseline; for Treatment difference in VL reduction: 97.5% confidence interval printed in next row
From the text: (§1) (b) were infected with a non R5 tropic (CXCR4 using viral population) as determined by Monogram Bioscience Phenosense™ assay (WO 02/-99383; U.S. Pat. No. 5,837,464), or were of indeterminate tropism phenotype;
(c) had been on a stable antiviral regimen for at least 4 weeks prior to randomisation:
(e) (i) had at least three months previous antiretroviral experience with at least one agent from three of the four antiretroviral drug classes: NTRIs, NNRTIs, protease inhibitors and fusion inhibitors (i.e. were triple class experienced); or
(ii) had documented resistance to members of two of the four antiretroviral drug classes (i.e. were dual class resistant).
(§2) The eligible patients were randomised into three groups based on the drug regimens they received.
(§3) Group 3: optimised background therapy (as above) plus placebo.
These patients were distributed evenly among the 3 patient groups.
(§4) The mean of these measurements was taken to be the baseline measurement for each patient.
(§5) After 24 weeks of treatment, the endpoints (as discussed below) were measured.
(a) For each patient, the change from baseline in HIV-1 viral load (on a log[base10]scale) was measured.
(b) The percentage of patients with fewer than (i) 400 and (ii) 50 HIV-1 RNA copies\mL.

CD4 cell count = test: Clinical trial: change from baseline in CD4 cell count (FACS) after 24 weeks; type: in vivo, human; conditions: for Mean change in CD4 count: from baseline
From the text: as §1, §2, §3, §4, §5
(§6) (d) For each patient, the change from baseline in CD4 and CD8 cell count was measured.
(§7) Cell count was measured by fluorescence activated cell sorting (FACS), which is a standard technique.

CD8 cell count = test: Clinical trial: change from baseline in CD8 cell count (FACS) after 24 weeks; type: in vivo, human; conditions: for Mean change in CD8 count: from baseline
Procedure: as §1, §2, §3, §5, §6, §7

[2] = once daily maraviroc + optimised regimen, 24 weeks
[3] = twice daily maraviroc + optimised regimen, 24 weeks
[4] = maraviroc both once and twice daily
[5] = once daily maraviroc + optimised regimen
[6] = twice daily maraviroc + optimised regimen

Substance: (N-{(1S)-3-[3-isopropyl-5-methyl-4H-1,2,4-triazole-4-yl]-exo-8-azabicyclo[3.2.1]oct-8-yl}-1-phenylpropyl)-4,4-difluorocyclohexanecarboxamide [maraviroc]
- viral load change from baseline ([1]; maraviroc once daily and twice daily groups, 24 weeks): −1.2 log10
- Mean VL reduction ([1]; once daily maraviroc 150 mg po (300 mg if OBT without PI or delavirdine) + optimised regimen): −0.91 log10 copies/mL
- Treatment difference in VL reduction ([1]; once daily maraviroc + optimised regimen vs placebo + optimised regimen, 24 weeks): +0.06 log10 copies/mL
- >0.5 log10 VL reduction (percentage of patients) [1, 2]: 42.1%
- >1 log10 VL reduction (percentage of patients) [1, 2]: 31.6%
- VL < 50 counts\mL (percentage of patients) [1, 2]: 21.0%^
- VL < 400 counts/mL (percentage of patients) [1, 2]: 24.6%
- Mean VL reduction ([1]; twice daily maraviroc 150 mg po (300 mg if OBT without PI or delavirdine) + optimised regimen): −1.20 log10 copies/mL
- Treatment difference in VL reduction ([1]; twice daily maraviroc + optimised regimen vs placebo + optimised regimen, 24 weeks): −0.23 log10 copies/mL
- >0.5 log10 VL reduction (percentage of patients) [1, 3]: 48.1%
- >1 log10 VL reduction (percentage of patients) [1, 3]: 44.2%
- VL < 50 counts\mL (percentage of patients) [1, 3]: 26.9%
- VL < 400 counts/mL (percentage of patients) [1, 3]: 30.8%
- increase in CD4 cell count as compared to the placebo (CD4 cell count; [4]): clinically meaningful (and statistically significant) increase
- mean CD4 change (CD4 cell count; maraviroc once daily + OBT): +59.6 cells/μL
- mean CD4 change (CD4 cell count; maraviroc twice daily + OBT): +62.2 cells/μL
- Mean change in CD4 count (CD4 cell count; [5]): +59.6
- Mean change in CD4 count (CD4 cell count; [6]): +62.4
- increase in CD8 cell count as compared to the placebo (CD8 cell count; [4]): clinically meaningful (and statistically significant) increase
- Mean CD8 cell change (CD8 cell count; maraviroc once daily + OBT): +384.5 cells/μL
- Mean CD8 cell change (CD8 cell count; maraviroc twice daily + OBT): +338.8 cells/μL
- Mean change in CD8 count (CD8 cell count; [5]): +384.5
- Mean change in CD8 count (CD8 cell count; [6]): +338.8
